Experimental data as given in PubChem BioAssay (NCI).
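Here, GI50 denotes the concentration required for 50% inhibition of growth. TGI marks complete inhibition of growth.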

Legend:
Test in all cases: NCI anticancer screen, dose series, 384-well format
HOP-62 NSCLC = tested on: HOP-62 NSCLC
OVCAR-3 ovarian = tested on: OVCAR-3 ovarian
SF-295 CNS = tested on: SF-295 CNS
CAKI-1 renal = tested on: CAKI-1 renal
SNB-19 CNS = tested on: SNB-19 CNS
UACC-62 melanoma = tested on: UACC-62 melanoma
NCI-H23 lung = tested on: NCI-H23 lung
SF-268 CNS = tested on: SF-268 CNS
MALME-3M melanoma = tested on: MALME-3M melanoma
PC-3 prostate = tested on: PC-3 prostate
UO-31 renal = tested on: UO-31 renal
ACHN renal = tested on: ACHN renal
NCI-H322M lung = tested on: NCI-H322M lung
MCF7 breast = tested on: MCF7 breast
M14 melanoma = tested on: M14 melanoma
SN12C renal = tested on: SN12C renal
NCI-H522 lung = tested on: NCI-H522 lung
U251 glioblastoma = tested on: U251 glioblastoma
RXF 393 renal = tested on: RXF 393 renal
SK-MEL-5 melanoma = tested on: SK-MEL-5 melanoma
OVCAR-4 ovarian = tested on: OVCAR-4 ovarian
SNB-75 CNS = tested on: SNB-75 CNS
KM12 colon = tested on: KM12 colon
SR leukemia = tested on: SR leukemia
A549 NSCLC = tested on: A549 NSCLC
HT29 colon = tested on: HT29 colon
DU-145 prostate = tested on: DU-145 prostate
NCI-H226 lung = tested on: NCI-H226 lung
SK-MEL-28 melanoma = tested on: SK-MEL-28 melanoma
HOP-92 NSCLC = tested on: HOP-92 NSCLC
NCI-H460 NSCLC = tested on: NCI-H460 NSCLC
HCT-15 colon = tested on: HCT-15 colon
HS 578T breast = tested on: HS 578T breast
HCC-2998 colon = tested on: HCC-2998 colon
LOX IMVI melanoma = tested on: LOX IMVI melanoma
RPMI-8226 leukemia = tested on: RPMI-8226 leukemia
SW-620 colon = tested on: SW-620 colon
BT-549 breast = tested on: BT-549 breast
HL-60(TB) leukemia = tested on: HL-60(TB) leukemia
COLO 205 colon = tested on: COLO 205 colon
MDA-MB-435 melanoma = tested on: MDA-MB-435 melanoma
MOLT-4 leukemia = tested on: MOLT-4 leukemia
T-47D breast = tested on: T-47D breast
HCT-116 colon = tested on: HCT-116 colon
A498 renal = tested on: A498 renal
SF-539 CNS = tested on: SF-539 CNS
IGROV1 ovarian = tested on: IGROV1 ovarian
EKVX NSCLC = tested on: EKVX NSCLC
SK-OV-3 ovarian = tested on: SK-OV-3 ovarian
786-0 renal = tested on: 786-0 renal
UACC-257 melanoma = tested on: UACC-257 melanoma
MDA-MB-468 breast = tested on: MDA-MB-468 breast
NCI/ADR-RES ovarian = tested on: NCI/ADR-RES ovarian
OVCAR-8 ovarian = tested on: OVCAR-8 ovarian
MDA-MB-231 breast = tested on: MDA-MB-231 breast
TK-10 renal = tested on: TK-10 renal
OVCAR-5 ovarian = tested on: OVCAR-5 ovarian

What does the source list for `C=C1C[C@@H]2[C@H](CC[C@]3(C)C(=O)CC[C@@H]23)[C@@]2(C)C=CC(=O)C=C12`?
GI50 (HOP-62 NSCLC): 23.1 µM; TGI (HOP-62 NSCLC): 56.2 µM; GI50 (OVCAR-3 ovarian): 14.8 µM; TGI (OVCAR-3 ovarian): 35.9 µM; GI50 (SF-295 CNS): 57.1 µM; TGI (SF-295 CNS): > 100 µM; GI50 (CAKI-1 renal): 27 µM; TGI (CAKI-1 renal): 70.7 µM; GI50 (SNB-19 CNS): 46.5 µM; TGI (SNB-19 CNS): > 100 µM; GI50 (UACC-62 melanoma): 21.9 µM; TGI (UACC-62 melanoma): > 100 µM; GI50 (NCI-H23 lung): 17.9 µM; TGI (NCI-H23 lung): 36.2 µM; GI50 (SF-268 CNS): 27.4 µM; TGI (SF-268 CNS): 74.9 µM; GI50 (MALME-3M melanoma): 12.2 µM; TGI (MALME-3M melanoma): 25.9 µM; GI50 (PC-3 prostate): 30.3 µM; TGI (PC-3 prostate): > 100 µM; GI50 (UO-31 renal): 21.1 µM; TGI (UO-31 renal): 39.5 µM; GI50 (ACHN renal): 22.3 µM; TGI (ACHN renal): 42.6 µM; GI50 (NCI-H322M lung): 25.1 µM; TGI (NCI-H322M lung): 74.6 µM; GI50 (MCF7 breast): 18.6 µM; TGI (MCF7 breast): 82.4 µM; GI50 (M14 melanoma): 29.3 µM; TGI (M14 melanoma): > 100 µM; GI50 (SN12C renal): 32.4 µM; TGI (SN12C renal): 98.2 µM; GI50 (NCI-H522 lung): 12.2 µM; TGI (NCI-H522 lung): 24.8 µM; GI50 (U251 glioblastoma): 21.4 µM; TGI (U251 glioblastoma): 44.4 µM; GI50 (RXF 393 renal): 5.67 µM; TGI (RXF 393 renal): 17.4 µM; GI50 (SK-MEL-5 melanoma): 12.9 µM; TGI (SK-MEL-5 melanoma): 29.1 µM; GI50 (OVCAR-4 ovarian): 20.9 µM; TGI (OVCAR-4 ovarian): 40.2 µM; GI50 (SNB-75 CNS): 25.9 µM; TGI (SNB-75 CNS): 74 µM; GI50 (KM12 colon): 28 µM; TGI (KM12 colon): 94.9 µM; GI50 (SR leukemia): 18 µM; TGI (SR leukemia): 32.1 µM; GI50 (A549 NSCLC): 30.1 µM; TGI (A549 NSCLC): > 100 µM; GI50 (HT29 colon): 23 µM; TGI (HT29 colon): 99.1 µM; GI50 (DU-145 prostate): 35.2 µM; TGI (DU-145 prostate): > 100 µM; GI50 (NCI-H226 lung): 20.5 µM; TGI (NCI-H226 lung): 39.2 µM; GI50 (SK-MEL-28 melanoma): > 100 µM; TGI (SK-MEL-28 melanoma): > 100 µM; GI50 (HOP-92 NSCLC): > 100 µM; TGI (HOP-92 NSCLC): > 100 µM; GI50 (NCI-H460 NSCLC): 21.1 µM; TGI (NCI-H460 NSCLC): 40.6 µM; GI50 (HCT-15 colon): 19 µM; TGI (HCT-15 colon): > 100 µM; GI50 (HS 578T breast): 12.3 µM; TGI (HS 578T breast): 27.2 µM; GI50 (HCC-2998 colon): 15.8 µM; TGI (HCC-2998 colon): 30 µM; GI50 (LOX IMVI melanoma): 12.5 µM; TGI (LOX IMVI melanoma): 27.1 µM; GI50 (RPMI-8226 leukemia): 17.8 µM; TGI (RPMI-8226 leukemia): 32.2 µM; GI50 (SW-620 colon): 33.9 µM; TGI (SW-620 colon): > 100 µM; GI50 (BT-549 breast): 14.9 µM; TGI (BT-549 breast): 31.1 µM; GI50 (HL-60(TB) leukemia): 12.8 µM; TGI (HL-60(TB) leukemia): 25.6 µM; GI50 (COLO 205 colon): 20.7 µM; TGI (COLO 205 colon): 37.4 µM; GI50 (MDA-MB-435 melanoma): 82.9 µM; TGI (MDA-MB-435 melanoma): > 100 µM; GI50 (MOLT-4 leukemia): 13.7 µM; TGI (MOLT-4 leukemia): 27 µM; GI50 (T-47D breast): 27.6 µM; TGI (T-47D breast): 98.6 µM; GI50 (HCT-116 colon): 27.5 µM; TGI (HCT-116 colon): > 100 µM; GI50 (A498 renal): 23.3 µM; TGI (A498 renal): 47.8 µM; GI50 (SF-539 CNS): 19.6 µM; TGI (SF-539 CNS): 38.9 µM; GI50 (IGROV1 ovarian): 32.6 µM; TGI (IGROV1 ovarian): > 100 µM; GI50 (EKVX NSCLC): 28.4 µM; TGI (EKVX NSCLC): 75.7 µM; GI50 (SK-OV-3 ovarian): 82.2 µM; TGI (SK-OV-3 ovarian): > 100 µM; GI50 (786-0 renal): 19.8 µM; TGI (786-0 renal): 45.8 µM; GI50 (UACC-257 melanoma): 17.3 µM; TGI (UACC-257 melanoma): 53.1 µM; GI50 (MDA-MB-468 breast): 6.15 µM; TGI (MDA-MB-468 breast): 25.8 µM; GI50 (NCI/ADR-RES ovarian): 17.9 µM; TGI (NCI/ADR-RES ovarian): 35.3 µM; GI50 (OVCAR-8 ovarian): 20.3 µM; TGI (OVCAR-8 ovarian): 47.2 µM; GI50 (MDA-MB-231 breast): 28.8 µM; TGI (MDA-MB-231 breast): 85.1 µM; GI50 (TK-10 renal): > 100 µM; TGI (TK-10 renal): > 100 µM; GI50 (OVCAR-5 ovarian): > 100 µM; TGI (OVCAR-5 ovarian): > 100 µM
